Where two headings read alike, the source gives them in different places.
Columns and labels:
H8 cells = experiment: MTT cytotoxicity assay, normal cervical epithelial H8 cells; format: cell-based, human; conditions: 48 h, mean ± SD
Protocol: (§1) HeLa and SiHa cell lines were obtained from the Procell Life Science Technology Co., Ltd. (Wuhan, China); H8 cell line was obtained from the Shanghai HonSun Biological Technology Co., Ltd. (Shanghai, China); HUVEC cell line was obtained from the Saibaikang (Shanghai) Biotechnology Co., Ltd. (Shanghai, China); HeLa/DDP cell line was obtained from the Guangzhou Jenniobio Biotechnology Co., Ltd. (Guangzhou, China). HeLa, SiHa, H8, and HeLa/DDP cells were cultured in DMEM medium (HyClone). The VEGF of 50 ng/mL was used as the promoter of the VEGFR-2 receptor on HUVEC cell membrane surfaces, and their inhibitory effects on VEGFR-2 were determined. All the mediums were supplemented with 10% FBS (HyClone, GE Healthcare, Australia). Cells were maintained at subconfluency at 37 °C in humidified air containing 5% CO2. The cells were monitored daily and maintained at 80% cell density. All compounds tested were dissolved in DMSO and then diluted by the culture medium before the treatment of cultured cells. Identification reports are available for all types of cell lines involved in this study.
(§2) The cytotoxicity of the target compounds were measured in vitro using the MTT assay. Cells grown in the logarithmic phase were counted and seeded in 96-well cell culture plates (5 × 10^3 cells per well) for 24 h to allow attachment of cells to the wall of the plate. […] Next, 20 μL of 5 mg.mL^−1 MTT solution was added to each well and cultured for 4 h. The old solution was discarded, replaced with 150 μL DMSO solution per well, and shaken for 10 min. The OD value was measured under 490 nm, and the inhibition rate was calculated. The nonlinear regression fitting of the cell growth rate was carried out using SPSS 23.0 software, and the IC50 of the compound was calculated. […] There were 6 compound holes in each group, and the experimental results were presented as the average of 3 experiments. A complete medium containing only cells was used as the blank control, whereas a complete medium without cells was the negative control group. Cisplatin and sorafenib were utilized as the positive control group, and the target compound was the experimental intervention group.

HeLa cells [1] = experiment: MTT antiproliferative assay, HeLa cells; format: cell-based, human; conditions: 48 h
Protocol: as §1, §2

SiHa cells = experiment: MTT antiproliferative assay, SiHa cells; format: cell-based, human; conditions: 48 h, mean ± SD
Protocol: as §1, §2

HeLa/DDP cells = experiment: MTT assay, cisplatin-resistant HeLa/DDP cells; format: cell-based, human; conditions: for RI (resistance index): HeLa/DDP versus HeLa; for IC50: 48 h, read-out: 48h IC50 HeLa/DDP
Protocol: The cytotoxicity of the target compounds were measured in vitro using the MTT assay. Cells grown in the logarithmic phase were counted and seeded in 96-well cell culture plates (5 × 10^3 cells per well) for 24 h to allow attachment of cells to the wall of the plate. […] Next, 20 μL of 5 mg.mL^−1 MTT solution was added to each well and cultured for 4 h. The old solution was discarded, replaced with 150 μL DMSO solution per well, and shaken for 10 min. The OD value was measured under 490 nm, and the inhibition rate was calculated. The nonlinear regression fitting of the cell growth rate was carried out using SPSS 23.0 software, and the IC50 of the compound was calculated. […] A complete medium containing only cells was used as the blank control, whereas a complete medium without cells was the negative control group.
To reduce the adverse reactions caused by the fixation of drug resistance reversal agents, the concentration that reduces the proliferation rate of tumor cells by less than 10% was selected.

HUVEC cells = experiment: In vitro HUVEC inhibitory assay (MTT); format: cell-based; conditions: Homo sapiens, 48 h, ± SD
Protocol: as §1, §2
After incubation for 24 h, the cell was collected using centrifugation and washed twice using PBS chilled to 0 °C. Then, the cells were homogenized in RIPA lysis buffer and 1% PMSF, 1% mixed phosphatase inhibitor (Solarbio, Beijing, China). The lysates were incubated on ice for 30 min, intermittently vortexed every 5 min, and centrifuged at 12,000 rpm for 20 min to harvest the supernatants.

HeLa cells [2] = experiment: Apoptosis analysis, Annexin V-FITC/PI flow cytometry; format: cell-based, human; conditions: 4 μM, 24 h
Protocol: After incubation, cells were harvested and incubated using […] of Annexin-V/FITC (BD, America) in binding buffer (10 mM HEPES, 140 mM NaCl, and 2.5 mM CaCl2 at pH 7.4) at room temperature for 15 min. The PI solution was then added to the medium for another 10 min incubation. Almost 10,000 events were collected for each sample and analyzed using flow cytometry (BD, LSRFortessa, New York, NY, USA). The procedure for the remaining Western blot was the same as in Section 3.3.3.

[3] = Homo sapiens, MTT, mean ± SD, read-out: 48h IC50 HeLa
[4] = Homo sapiens, single agent, read-out: 48h IC50 HeLa (Table 4)
[5] = Homo sapiens, cisplatin-resistant HeLa/DDP cells, single agent

Row | SMILES | IC50 (H8 cells; Homo sapiens) [µM] | IC50 (HeLa cells [1]; [3]) [µM] | IC50 (SiHa cells; Homo sapiens) [µM] | further results
1 | COc1cc(O)c(C(=O)/C=C/c2ccc(CN3CCC(O)CC3)cc2)cc1CN1CCC(O)CC1 [6a, (E)-1-(2-hydroxy-5-((4-hydroxypiperidin-1-yl)methyl)-4-methoxyphenyl)-3-(4-((4-hydroxypiperidin-1-yl)methyl)phenyl)prop-2-en-1-one] | > 100 | 72.9 ± 0.12 | > 100 | –
2 | COc1cc(O)c(C(=O)/C=C/c2ccc(CN3CCC(OC)CC3)cc2)cc1CN1CCC(O)CC1 [6b, (E)-1-(2-hydroxy-5-((4-hydroxypiperidin-1-yl)methyl)-4-methoxyphenyl)-3-(4-((4-methoxypiperidin-1-yl)methyl)phenyl)prop-2-en-1-one] | 82.5 ± 5.21 | 40.13 ± 0.11 | 57.1 ± 1.3 | –
3 | COc1cc(O)c(C(=O)/C=C/c2ccc(CN3CCCC3)cc2)cc1CN1CCC(O)CC1 [6c, (E)-1-(2-hydroxy-5-((4-hydroxypiperidin-1-yl)methyl)-4-methoxyphenyl)-3-(4-(pyrrolidin-1-ylmethyl)phenyl)prop-2-en-1-one] | 34 ± 4.14 | 32.17 ± 0.14 | 44.49 ± 0.38 | –
4 | COc1cc(O)c(C(=O)/C=C/c2ccc(CN3CCN(C)CC3)cc2)cc1CN1CCC(O)CC1 [6d, (E)-1-(2-hydroxy-5-((4-hydroxypiperidin-1-yl)methyl)-4-methoxyphenyl)-3-(4-((4-methylpiperazin-1-yl)methyl)phenyl)prop-2-en-1-one] | > 100 | > 100 | > 100 | –
5 | COc1cc(O)c(C(=O)/C=C/c2ccc(CN3CCOCC3)cc2)cc1CN1CCC(O)CC1 [6e, (E)-1-(2-hydroxy-5-((4-hydroxypiperidin-1-yl)methyl)-4-methoxyphenyl)-3-(4-(morpholinomethyl)phenyl)prop-2-en-1-one] | 75.69 ± 0.49 | 56.7 ± 0.59 | > 100 | –
6 | COc1cc(O)c(C(=O)/C=C/c2ccc(CN3CCC(C)CC3)cc2)cc1CN1CCC(OC)CC1 [6g, (E)-1-(2-hydroxy-4-methoxy-5-((4-methoxypiperidin-1-yl)methyl)phenyl)-3-(4-((4-methylpiperidin-1-yl)methyl)phenyl)prop-2-en-1-one] | 72.9 ± 1.08 | 47.05 ± 0.11 | 85.04 ± 0.47 | –
7 | COc1cc(O)c(C(=O)/C=C/c2ccc(CN3CCOCC3)cc2)cc1CN1CCC(OC)CC1 [6h, (E)-1-(2-hydroxy-4-methoxy-5-((4-methoxypiperidin-1-yl)methyl)phenyl)-3-(4-(morpholinomethyl)phenyl)prop-2-en-1-one] | > 100 | > 100 | > 100 | –
8 | COc1cc(O)c(C(=O)/C=C/c2ccc(CN3CCC(O)CC3)cc2)cc1CN1CCCC1 [6i, (E)-1-(2-hydroxy-4-methoxy-5-(pyrrolidin-1-ylmethyl)phenyl)-3-(4-((4-hydroxypiperidin-1-yl)methyl)phenyl)prop-2-en-1-one] | 71.64 ± 0.48 | 46.15 ± 0.35 | 77.02 ± 0.22 | –
9 | COc1cc(O)c(C(=O)/C=C/c2ccc(CN3CCOCC3)cc2)cc1CN1CCCC1 [6j, (E)-1-(2-hydroxy-4-methoxy-5-(pyrrolidin-1-ylmethyl)phenyl)-3-(4-(morpholinomethyl)phenyl)prop-2-en-1-one] | 58.46 ± 0.19 | 37.74 ± 0.22 | 47.65 ± 0.19 | –
10 | COc1cc(O)c(C(=O)/C=C/c2ccc(CN3CCC(OC)CC3)cc2)cc1CN1CCCC1 [6l, (E)-1-(2-hydroxy-4-methoxy-5-(pyrrolidin-1-ylmethyl)phenyl)-3-(4-((4-methoxypiperidin-1-yl)methyl)phenyl)prop-2-en-1-one] | > 100 | > 100 | > 100 | –
11 | COc1cc(O)c(C(=O)/C=C/c2ccc(CN3CCN(C)CC3)cc2)cc1CN1CCCC1 [6m, (E)-1-(2-hydroxy-4-methoxy-5-(pyrrolidin-1-ylmethyl)phenyl)-3-(4-((4-methylpiperazin-1-yl)methyl)phenyl)prop-2-en-1-one] | > 100 | 52.43 ± 0.42 | > 100 | –
12 | COc1cc(O)c(C(=O)/C=C/c2ccc(CN3CCOCC3)cc2)cc1CN1CCOCC1 [6n, (E)-1-(2-hydroxy-4-methoxy-5-(morpholinomethyl)phenyl)-3-(4-(morpholinomethyl)phenyl)prop-2-en-1-one] | > 100 | > 100 | > 100 | –
13 | COc1cc(O)c(C(=O)/C=C/c2ccc(CN3CCC(OC)CC3)cc2)cc1CN1CCOCC1 [6p, (E)-1-(2-hydroxy-4-methoxy-5-(morpholinomethyl)phenyl)-3-(4-((4-methoxypiperidin-1-yl)methyl)phenyl)prop-2-en-1-one] | 85.4 ± 3.92 | 79.9 ± 2.4 | 66.04 ± 0.49 | –
14 | COc1cc(O)c(C(=O)/C=C/c2ccc(CN3CCOCC3)cc2)cc1CN1CCC(C)CC1 [6q, (E)-1-(2-hydroxy-4-methoxy-5-((4-methylpiperidin-1-yl)methyl)phenyl)-3-(4-(morpholinomethyl)phenyl)prop-2-en-1-one] | > 100 | 88.17 ± 0.72 | > 100 | –
15 | COc1cc(O)c(C(=O)/C=C/c2ccc(CN3CCC(C)CC3)cc2)cc1CN1CCC(C)CC1 [6r, (E)-1-(2-hydroxy-4-methoxy-5-((4-methylpiperidin-1-yl)methyl)phenyl)-3-(4-((4-methylpiperidin-1-yl)methyl)phenyl)prop-2-en-1-one] | 42.2 ± 0.8 | 25.5 ± 1.21 | 36.6 ± 1.94 | –
16 | COc1cc(O)c(C(=O)/C=C/c2ccc(CN3CCCC3)cc2)cc1CN1CCC(C)CC1 [6s, (E)-1-(2-hydroxy-4-methoxy-5-((4-methylpiperidin-1-yl)methyl)phenyl)-3-(4-(pyrrolidin-1-ylmethyl)phenyl)prop-2-en-1-one] | 35.4 ± 0.61 | 30.9 ± 0.39 | 36.1 ± 1.71 | –
17 | COc1cc(O)c(C(=O)/C=C/c2ccc(CN3CCN(C)CC3)cc2)cc1CN1CCC(C)CC1 [6t, (E)-1-(2-hydroxy-4-methoxy-5-((4-methylpiperidin-1-yl)methyl)phenyl)-3-(4-((4-methylpiperazin-1-yl)methyl)phenyl)prop-2-en-1-one] | 42.11 ± 0.31 | 30.9 ± 0.18 | 36 ± 6.3 | –
18 | COc1cc(O)c(C(=O)/C=C/c2ccc(CN3CCC(C)CC3)cc2)cc1CN1CCN(C)CC1 [6u, (E)-1-(2-hydroxy-4-methoxy-5-((4-methylpiperazin-1-yl)methyl)phenyl)-3-(4-((4-methylpiperidin-1-yl)methyl)phenyl)prop-2-en-1-one] | 42.5 ± 0.85 | 28.01 ± 0.14 | 28.2 ± 0.5 | –
19 | N.N.[Cl][Pt][Cl] [Cisplatin, reference compound] | – | – | – | IC50 (H8 cells): 24.8 ± 1.37 µM; IC50 (HeLa cells [1]; MTT, mean ± SD, read-out: 48h IC50 HeLa): 13.6 ± 1.63 µM; IC50 (HeLa cells [1]; single agent, read-out: 48h IC50 HeLa (Table 4)): 13.6 ± 1.63 µM; IC50 (SiHa cells): 21.6 ± 2.9 µM; RI (resistance index) (HeLa/DDP cells; single agent): 7.36; IC50 (HeLa/DDP cells; cisplatin-resistant HeLa/DDP cells, single agent): 100 ± 7.94 µM
20 | COc1cccc2c1C(=O)c1c(O)c3c(c(O)c1C2=O)C[C@@](O)(C(=O)CO)C[C@@H]3O[C@H]1C[C@H](N)[C@H](O)[C@H](C)O1 [Doxorubicin] | – | – | – | IC50 (HeLa cells [1]; [4]): 10.6 ± 0.5 µM; RI (resistance index) (HeLa/DDP cells; single agent): 3.93; IC50 (HeLa/DDP cells; [5]): 41.6 ± 2.05 µM
21 | CC(=O)O[C@H]1C(=O)[C@@]2(C)[C@H]([C@H](OC(=O)c3ccccc3)[C@]3(O)C[C@H](OC(=O)[C@H](O)[C@@H](NC(=O)c4ccccc4)c4ccccc4)C(C)=C1C3(C)C)[C@]1(OC(C)=O)CO[C@@H]1C[C@@H]2O [Paclitaxel, reference compound] | – | – | – | IC50 (HeLa cells [1]; [4]): 20.1 ± 1.05 µM; IC50 (HeLa/DDP cells; [5]): 125 ± 5.3 µM
22 | CNC(=O)c1cc(Oc2ccc(NC(=O)Nc3ccc(Cl)c(C(F)(F)F)c3)cc2)ccn1 [Sorafenib, reference compound] | 18.4 ± 1.04 | 10.8 ± 0.15 | 15 ± 1.2 | IC50 (HUVEC cells): 9.2 ± 1.22 µM; IC50 (HeLa cells [1]; [4]): 10.8 ± 0.15 µM; proapoptotic rate (HeLa cells [2]): 31.7%; IC50 (HeLa/DDP cells; Homo sapiens, HeLa): 12.4 ± 0.54 µM

Reference: PMC10254235, “Design, Synthesis, and Anti-Cervical Cancer and Reversal of Tumor Multidrug Resistance Activity of Novel Nitrogen-Containing Heterocyclic Chalcone Derivatives” (Molecules, 2023)
